# According to US12396458B2, “Fused ring substituted aromatic compound and preparation method therefor, herbicidal composition, and use thereof” (Qingdao Kingagroot Chemical Compound Co., Ltd., priority 2020, dated 2025):
# Test system: Capsella bursa-pastoris
# Assay: Weeding effect in post-emergence stage (greenhouse pot test)
# Assay type: in vivo
# Conditions: dose 15 g a.i./ha, 3 weeks after application, fresh weight control rate
# From the text: The activity level criteria for plant damage (i.e., growth control rate) are as follows:
# Level 5: growth control rate is above 85%; • Level 4: growth control rate is greater than or equal to 60% and less than 85%; • Level 3: growth control rate is greater than or equal to 40% and less than 60%; • Level 2: growth control rate is greater than or equal to 20% and less than 40%; • Level 1: growth control rate is greater than or equal to 5% and less than 20%; • Level 0: growth control rate is less than 5%.
# The above growth control rates are fresh weight control rates.
# Experiment on weeding effect in post-emergence stage:
# Monocotyledonous and dicotyledonous weed seeds (Descurainia sophia, Capsella bursa-pastoris, Abutilon theophrasti, Galium aparine, Stellaria media, Lithospermum arvense, Rorippa indica, Alopecurus aequalis, Alopecurus japonicus, Eleusine indica, Beckmannia syzigachne, Sclerochloa dura, Phleum paniculatum, Veronica didyma Tenore, Bromus japonicus, Aegilops tauschii, Phalaris arundinacea, Amaranthus retrojlexus, Chenopodiaceae, Commelina communis, Sonchus arvensis, convolvulus arvensis, Cirsium setosum, Solanum nigrum, Acalypha australis, Digitaria sanguinalis, Echinochloa crusgalli, Setaria viridis, Setaria glauca, Leptochloa chinensis, Monochoria vaginalis, Sagittaria trifolia, Scirpus juncoides, Cyperus rotundus, Cyperus iria, Cyperus difformis, Fimbristylis, Portulaca oleracea, Xanthium sibiricum, Pharbitis nil, Conyza japonica, etc.) and major crop seeds (wheat, corn, rice, soybean, cotton, oilseed rape, millet, sorghum, potato, sesame, ricinus, etc.) were placed in plastic pots filled with soil, then covered with 0.5-2 cm of soil, allowed to grow in a good greenhouse environment. After 2 weeks of sowing, the test plants were treated in the 2-3 leaf stage. The tested compounds of the present invention were respectively dissolved in acetone, then added with Tween 80 and 1.5 liter/ha of emulsifiable concentrate of methyl oleate as synergist, diluted with a certain amount of water to obtain a solution with a certain concentration, and sprayed with a spray tower onto the plants. After the application, the plants were cultured for 3 weeks in the greenhouse, and then the experimental results of the weeding were counted. The doses of the used compounds were 500, 250, 125, 60, 15, 7.5 g a.i./ha, and the averages were obtained by repeating for three times.
row,SMILES,"Activity level (growth control rate), Capsella bursa-pastoris"
1,CCCNC(=O)C12CCCC1C(c1cc(N3C(=O)C(=O)N(CCC)C3=S)c(F)cc1Cl)=NO2 (stereo not drawn) [Compound 553],5 (Level 5: growth control rate is above 85%)
2,CCOC(=O)C12ON=C(c3cc(-n4c(=O)cc(C(F)(F)F)n(C)c4=O)c(F)cc3Cl)C1CCC2=NO (stereo not drawn) [Compound 491],5 (Level 5: growth control rate is above 85%)
3,COC(=O)C12CCCC1C(c1cc(-n3c(=O)cc(C(F)(F)F)n(C)c3=O)c(Cl)cc1Cl)=NO2 (stereo not drawn) [Compound 440],5 (Level 5: growth control rate is above 85%)
4,COC(=O)C12CCCCCC1C(c1cc(-n3c(=O)cc(C(F)(F)F)n(C)c3=O)c(F)cc1Cl)=NO2 (stereo not drawn) [Compound 435],5 (Level 5: growth control rate is above 85%)
5,COC(=O)C12CCCC1C(c1cc(-n3c(=O)cc(C(F)(F)F)n(C)c3=S)c(F)cc1Cl)=NO2 (stereo not drawn) [Compound 497],5 (Level 5: growth control rate is above 85%)

# Same assay, conditions: dose 125 g a.i./ha, 3 weeks after application, fresh weight control rate
row,SMILES,"Activity level (growth control rate), Capsella bursa-pastoris"
1,COC(=O)C12CCCC1C(c1cc(-c3c(Cl)c(C(F)(F)F)n(C)c3Cl)c(F)cc1Cl)=NO2 (stereo not drawn) [Compound 588],5 (Level 5: growth control rate is above 85%)
2,COC(=O)C12CCCC1C(c1cc(N3C(=O)CC(=C(C)C)C3=O)c(F)cc1Cl)=NO2 (stereo not drawn) [Compound 544],5 (Level 5: growth control rate is above 85%)
3,COC(=O)C12CCCC1C(c1cc(-c3cc(C(F)(F)F)n(C)c3)c(F)cc1Cl)=NO2 (stereo not drawn) [Compound 587],5 (Level 5: growth control rate is above 85%)
4,COC(=O)C12CCCC1C(c1cc(N3C(=O)C4CCCCC4C3=O)c(F)cc1Cl)=NO2 (stereo not drawn) [Compound 545],5 (Level 5: growth control rate is above 85%)
5,COC(=O)C12CCCC1C(c1cc(-n3c(=O)n(C)c(=S)n(C)c3=S)c(F)cc1Cl)=NO2 (stereo not drawn) [Compound 395],5 (Level 5: growth control rate is above 85%)
6,COC(=O)C12CCCCC1C(c1cc(-n3c(=O)cc(C(F)(F)F)n(C)c3=O)c(F)cc1Cl)=NO2 (stereo not drawn) [Compound 370],5 (Level 5: growth control rate is above 85%)
7,COC(=O)C12CCCC1C(c1cc(-c3c(Br)c(C(F)(F)F)nn3C)c(F)cc1Cl)=NO2 (stereo not drawn) [Compound 590],5 (Level 5: growth control rate is above 85%)
8,COC(=O)C12CCCC1C(c1cc(-n3nc4n(c3=O)CCCC4)c(F)cc1Cl)=NO2 (stereo not drawn) [Compound 561],5 (Level 5: growth control rate is above 85%)
9,COC(=O)C12CCCC1C(c1cc(N3C(=O)CC(C)CC3=O)c(F)cc1Cl)=NO2 (stereo not drawn) [Compound 547],5 (Level 5: growth control rate is above 85%)
10,COC(=O)C12CCCC1C(c1cc(-n3c(=O)c4ccccc4n(C)c3=O)c(F)cc1Cl)=NO2 (stereo not drawn) [Compound 551],5 (Level 5: growth control rate is above 85%)
11,COC(=O)C12CCCC1C(c1cc(-c3cc(C(F)(F)F)nn3C)c(F)cc1Cl)=NO2 (stereo not drawn) [Compound 589],5 (Level 5: growth control rate is above 85%)
12,O=C1C2CC=CCC2C(=O)N1c1cc(C2=NOC3(C(=O)O)CCCC23)c(Cl)cc1F (stereo not drawn) [Compound 546],5 (Level 5: growth control rate is above 85%)
13,CCCN1C(=O)C(=O)N(c2cc(C3=NOC4(C(=O)OC)CCCC34)c(Cl)cc2F)C1=S (stereo not drawn) [Compound 552],5 (Level 5: growth control rate is above 85%)
